Results from the supplement of paper PMC6045584.
± gives the standard deviation of the averaged measurements.

Columns and labels:
[1] = compound: C[C@@H](Oc1cc(-c2cnn(C3CCNCC3)c2)cnc1N)c1c(Cl)ccc(F)c1Cl; assay: surviving fraction relative to DMSO-only wells; higher = less growth inhibition; conditions: exposure time: 5 days
Method in brief: (§1)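 In 384-well plates, 250–500 log-phase tumour cells per well were given 24 hours before five days of continuous exposure to inhibitors at 0.5, 1, 5, 10, 50, 100, 500 and 1000 nM. Surviving fraction is luminescence from CellTiter-Glo, normalised to the median of wells containing DMSO alone. Reading took place after 10 minutes at room temperature.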

DASATINIB = compound: Cc1nc(Nc2ncc(C(=O)Nc3c(C)cccc3Cl)s2)cc(N2CCN(CCO)CC2)n1 [DASATINIB]; assay: as above; conditions: exposure time: 5 days
Method in brief: as §1

Test System	surviving fraction ([1]; 0.5 nM)	surviving fraction ([1]; 1 nM)	surviving fraction ([1]; 5 nM)	surviving fraction ([1]; 10 nM)	surviving fraction ([1]; 500 nM)	surviving fraction ([1]; 1000 nM)	surviving fraction (DASATINIB; 0.5 nM)	surviving fraction (DASATINIB; 1 nM)	surviving fraction (DASATINIB; 5 nM)	surviving fraction (DASATINIB; 10 nM)	surviving fraction (DASATINIB; 50 nM)	surviving fraction (DASATINIB; 100 nM)	surviving fraction (DASATINIB; 500 nM)	surviving fraction (DASATINIB; 1000 nM)	surviving fraction ([1]; 50 nM)	surviving fraction ([1]; 100 nM)
22RV1 PROSTATE	0.954 ± 0.079	1.01 ± 0.02	0.958 ± 0.022	0.944 ± 0.033	0.59 ± 0.078	0.406 ± 0.027	1.15 ± 0.32	0.983 ± 0.09	1.1 ± 0.3	0.935 ± 0.097	1.01 ± 0.15	0.929 ± 0.056	1.04 ± 0.085	1.09 ± 0.16		
93VU HEADNECK	0.809 ± 0.025	0.816 ± 0.02	0.835 ± 0.043	0.866 ± 0.068	0.77 ± 0.02	0.521 ± 0.068	0.779 ± 0.041	0.788 ± 0.054	0.829 ± 0.036	0.752 ± 0.053	0.276 ± 0.02	0.132 ± 0.016	0.0923 ± 0.0015	0.0923 ± 0.013	1.08 ± 0.068	1.06 ± 0.083
143B BONE	0.997 ± 0.012			0.997 ± 0.012	0.811 ± 0.039	0.643 ± 0.061	1.04 ± 0.058	1.03 ± 0.025	1.01 ± 0.046	0.9835 ± 0.00071	0.8695 ± 0.005	0.806 ± 0.019	0.7575 ± 0.0035	0.75 ± 0.042		1.002 ± 0.0092
A549 LUNG		0.942 ± 0.01		0.909 ± 0.0099	1.009 ± 0.0093	0.552 ± 0.031	0.915 ± 0.0066	0.9003 ± 0.0076	0.879 ± 0.02	0.859 ± 0.018	0.858 ± 0.033	0.8223 ± 0.0025	0.646 ± 0.028	0.631 ± 0.012	1.01 ± 0.014	1.04 ± 0.064
ASKA SYNOVIAL	0.873 ± 0.092	0.773 ± 0.061	0.78 ± 0.035	0.69 ± 0.044	0.246 ± 0.014	0.249 ± 0.014	0.928 ± 0.024	0.904 ± 0.051	0.974 ± 0.061	0.936 ± 0.046	0.985 ± 0.085	0.94 ± 0.032	0.919 ± 0.019	0.905 ± 0.036	0.527 ± 0.028	0.415 ± 0.021
BT20 BREAST	0.82 ± 0.047	0.792 ± 0.032	0.808 ± 0.092	0.821 ± 0.071	0.786 ± 0.04	0.468 ± 0.078	0.767 ± 0.056	0.729 ± 0.02	0.699 ± 0.026	0.739 ± 0.11	0.774 ± 0.13	0.798 ± 0.061	0.752 ± 0.034	0.705 ± 0.036	1 ± 0.074	1 ± 0.052
BT549 BREAST	0.76 ± 0.093	0.99 ± 0.11		0.905 ± 0.019		0.371 ± 0.042	0.968 ± 0.16	0.937 ± 0.12	0.774 ± 0.12	0.669 ± 0.056	0.395 ± 0.037	0.236 ± 0.018	0.113 ± 0.012	0.114 ± 0.037	1.1 ± 0.073	
C33A CERVIX	1.01 ± 0.068		1.08 ± 0.13	1.14 ± 0.059	0.565 ± 0.028	0.515 ± 0.011	0.869 ± 0.078	0.772 ± 0.044	0.521 ± 0.034	0.419 ± 0.008	0.219 ± 0.026	0.182 ± 0.0036	0.157 ± 0.0025	0.172 ± 0.0091	1.06 ± 0.044	
CADOES1 SOFT TISSUE		0.89 ± 0.16	0.961 ± 0.088	0.936 ± 0.036	0.576 ± 0.054	0.291 ± 0.033	1.04 ± 0.07	1.01 ± 0.034	0.91 ± 0.042	0.939 ± 0.11	1.01 ± 0.079	0.973 ± 0.081	1.05 ± 0.099	1.14 ± 0.1	0.93 ± 0.042	0.941 ± 0.04
CAL51 BREAST	0.958 ± 0.033	0.918 ± 0.099	1 ± 0.023	0.909 ± 0.049	0.215 ± 0.017	0.175 ± 0.0096	0.838 ± 0.069	0.8707 ± 0.0049	0.832 ± 0.047	0.737 ± 0.046	0.491 ± 0.036	0.386 ± 0.025	0.248 ± 0.019	0.238 ± 0.033	0.972 ± 0.046	0.949 ± 0.026
CAL72 BONE	1 ± 0.02	1.04 ± 0.024	1.02 ± 0.029		0.903 ± 0.025	0.9047 ± 0.0064	1.01 ± 0.048	1.01 ± 0.041	0.862 ± 0.16	0.618 ± 0.25	0.269 ± 0.12	0.233 ± 0.12	0.226 ± 0.12	0.221 ± 0.12	1.09 ± 0.047	1.1 ± 0.013
CAL120 BREAST	0.912 ± 0.011		0.908 ± 0.029	0.898 ± 0.02	0.676 ± 0.091	0.547 ± 0.013	0.877 ± 0.098	0.882 ± 0.025	0.861 ± 0.013	0.786 ± 0.062	0.497 ± 0.022	0.358 ± 0.021	0.217 ± 0.0088	0.192 ± 0.015		0.935 ± 0.017
CASKI CERVIX	0.829 ± 0.056	0.782 ± 0.081	0.816 ± 0.011		0.308 ± 0.018	0.303 ± 0.036	0.732 ± 0.045	0.777 ± 0.052	0.69 ± 0.024	0.474 ± 0.03	0.121 ± 0.0042	0.0747 ± 0.0047	0.0433 ± 0.0023	0.0293 ± 0.00058	0.925 ± 0.022	0.88 ± 0.014
CHLA90 AUTONOMIC GANGLIA	0.996 ± 0.039		0.855 ± 0.042		0.479 ± 0.029	0.328 ± 0.023	0.801 ± 0.031	0.804 ± 0.059	0.737 ± 0.054	0.712 ± 0.025	0.735 ± 0.11	0.656 ± 0.091	0.711 ± 0.044	0.728 ± 0.026	0.812 ± 0.037	0.785 ± 0.019
CME SYNOVIAL	0.902 ± 0.043		0.98 ± 0.25	0.902 ± 0.12	0.634 ± 0.054	0.272 ± 0.007	0.831 ± 0.15	0.827 ± 0.1	0.752 ± 0.088	0.713 ± 0.1	0.598 ± 0.028	0.464 ± 0.042	0.411 ± 0.075	0.383 ± 0.036	1.04 ± 0.04	1.06 ± 0.14
COLO320DM LARGE INTESTINE		1.13 ± 0.071	1.02 ± 0.041	0.977 ± 0.042	0.512 ± 0.0092	0.341 ± 0.011	1.12 ± 0.096	1.01 ± 0.051	1.08 ± 0.074	1.1 ± 0.034	1.03 ± 0.028	1.02 ± 0.056	1.09 ± 0.045	1.09 ± 0.089	1.05 ± 0.042	1.02 ± 0.027
DU4475 BREAST	0.798 ± 0.13	0.753 ± 0.041	0.83 ± 0.15	0.706 ± 0.14	0.423 ± 0.18	0.0877 ± 0.041	0.824 ± 0.17	0.828 ± 0.09	0.802 ± 0.1	0.689 ± 0.21	0.658 ± 0.031	0.748 ± 0.15	0.669 ± 0.2	0.514 ± 0.083	0.748 ± 0.089	0.722 ± 0.23
H23 LUNG	0.9503 ± 0.0081		0.963 ± 0.034		0.926 ± 0.049	0.688 ± 0.019	0.924 ± 0.025	0.902 ± 0.065	0.823 ± 0.064	0.783 ± 0.052	0.597 ± 0.051	0.511 ± 0.067	0.288 ± 0.0063	0.256 ± 0.013	0.9953 ± 0.0047	0.993 ± 0.023
HCC78 LUNG	0.898 ± 0.19	0.978 ± 0.1	1.05 ± 0.099	0.838 ± 0.16	0.166 ± 0.012	0.069 ± 0.021	0.662 ± 0.064	0.783 ± 0.025	0.849 ± 0.084	0.914 ± 0.068	0.569 ± 0.15	0.235 ± 0.019	0.175 ± 0.056	0.176 ± 0.045	0.421 ± 0.08	0.455 ± 0.15
HCC202 BREAST	1.31 ± 0.55	1.08 ± 0.25	1.31 ± 0.015	1.05 ± 0.069			0.999 ± 0.37	1.23 ± 0.21	0.816 ± 0.2	0.907 ± 0.31	0.697 ± 0.21	0.722 ± 0.042	0.509 ± 0.019	0.505 ± 0.21	1.32 ± 0.23	1.37 ± 0.17
HCC1395 BREAST	0.831 ± 0.14	0.74 ± 0.087	0.814 ± 0.074	0.838 ± 0.097		1 ± 0.089	0.813 ± 0.065	0.961 ± 0.1	0.891 ± 0.068	0.902 ± 0.044	0.763 ± 0.093	0.704 ± 0.091	0.583 ± 0.067	0.591 ± 0.017	1.01 ± 0.11	1 ± 0.065
HCC1806 BREAST	0.818 ± 0.034	0.74 ± 0.067	0.87 ± 0.029		0.502 ± 0.022	0.273 ± 0.0078	0.682 ± 0.085	0.639 ± 0.021	0.71 ± 0.059	0.639 ± 0.075	0.446 ± 0.017	0.219 ± 0.038	0.167 ± 0.015	0.149 ± 0.021	1.06 ± 0.11	0.862 ± 0.018
